In ChEMBL document CHEMBL5137002, “A Comprehensive Biological and Synthetic Perspective on 2-Deoxy-d-Glucose (2-DG), A Sweet Molecule with Therapeutic and Diagnostic Potentials” (J Med Chem, 2022):

Columns and labels:
Saccharomyces cerevisiae = test: Inhibition of yeast hexokinase assessed as Km
[1] = Drug uptake in tumor of rat measured per gram of tissue at 1 hr; format: ADME, tissue-based, Neoplasm; conditions: in vivo
[2] = Ratio of tumor to blood biodistribution in rat after 60 mins; format: ADME, organism-based; conditions: tumor and blood
[3] = Competitive inhibition of yeast hexokinase; parameters: species or system Saccharomyces cerevisiae
[4] = Competitive inhibition of rat brain hexokinase
U-87 MG [5] = test: Growth inhibition of human U87 cells under hypoxic condition; format: functional, cell-based, U-87MG ATCC
U-87 MG [6] = test: Growth inhibition of human U87 cells under normoxic condition; format: functional, cell-based, U-87MG ATCC
SARS-CoV-2 [7] = test: Antiviral activity against SARS-CoV-2 B.6 in African green monkey Vero E6 cells assessed as inhibition of virus multiplication; format: functional, organism-based; conditions: Severe acute respiratory syndrome coronavirus 2, B.6, Vero C1008
SARS-CoV-2 [8] = test: Antiviral activity against SARS-CoV-2 B.1.1.7 in African green monkey Vero E6 cells assessed as inhibition of virus multiplication; format: functional, organism-based; conditions: Severe acute respiratory syndrome coronavirus 2, B.1.1.7, Vero C1008
SARS-CoV-2 [9] = test: Antiviral activity against SARS-CoV-2 in African green monkey Vero E6 cells assessed as inhibition of virus multiplication at 1 mM; format: functional; conditions: Severe acute respiratory syndrome coronavirus 2, Vero C1008
SARS-CoV-2 [10] = test: Antiviral activity against SARS-CoV-2 in African green monkey Vero cells assessed as inhibition of virus multiplication in presence of extracellular glucose; format: functional, Severe acute respiratory syndrome coronavirus 2

`OC[C@H]1OC(O)[C@H](F)[C@@H](O)[C@@H]1O` (stereo not given in full) gave a Km (Saccharomyces cerevisiae) of 190 µM.
Work on `OC1C[C@H](O)[C@H](O)CO1` (stereo not given in full) yielded a Km (Saccharomyces cerevisiae) of 590 µM.
Compound `OC[C@H]1OC(O)[C@@H]([18F])[C@@H](O)[C@@H]1O` (stereo not given in full) has a Drug uptake [1] of 2.65% and a Kp at 1 h [2] of 29.4.
For `NC1C(O)OC(CO)[C@@H](O)[C@@H]1O` (stereo not given in full), the Ki [3] was 700 µM and the Ki [4] was 300 µM.
`CC(=O)Nc1c(I)c(C(=O)N[C@H]2C(O)O[C@H](CO)[C@@H](O)[C@@H]2O)c(I)c(N(C)C(C)=O)c1I` (stereo not given in full) [METRIZAMIDE] gave a Ki [3] of 700 µM and a Ki [4] of 20000 µM.
For `OC[C@H]1OC(O)[C@H](O)[C@@H](O)[C@@H]1F` (stereo not given in full), the Km (Saccharomyces cerevisiae) was 84000 µM.
In the case of `OC[C@H]1OC(O)[C@H](O)[C@@H](F)[C@@H]1O` (stereo not given in full), the Km (Saccharomyces cerevisiae) is reported as 70000 µM.
Compound `OC[C@H]1OC(O)C(F)(F)[C@@H](O)[C@@H]1O` (stereo not given in full) has a Km (Saccharomyces cerevisiae) of 130 µM.
`CC(=O)OC[C@H]1OC(O)C[C@@H](OC(C)=O)[C@@H]1O` (stereo not given in full) showed an IC50 (U-87 MG [5]) of 1000 µM and an IC50 (U-87 MG [6]) of 1000 µM.
With `OC[C@H]1OC(O)[C@@H](F)[C@@H](O)[C@@H]1O` (stereo not given in full) the Km (Saccharomyces cerevisiae) was 410 µM.
Work on `OC[C@H]1OC(O)C[C@@H](O)[C@@H]1O` (stereo not given in full) yielded an IC50 (SARS-CoV-2 [7]) of under 1000 µM, an IC50 (SARS-CoV-2 [8]) of under 1000 µM and an inhibition at 1000 µM (SARS-CoV-2 [9]) of 93%. For the same compound, the “inhibition (INH)” value (SARS-CoV-2 [10]) was 7%.
Work on `OC[C@H]1OC(O)[C@H]([18F])[C@@H](O)[C@@H]1O` (stereo not given in full) [FLUDEOXYGLUCOSE F 18] yielded a Drug uptake [1] of 2.65% and a Kp at 1 h [2] of 22.1.
